Patent US8697888B2, “Substituted (1-(methylsulfonyl)azetidin-3-yl)(heterocycloalkyl)methanone analogs as antagonists of muscarinic acetylcholine M1 receptors” (Vanderbilt University, priority 2012, dated 2014)
Marks after values point to notes of the source that are not given here.

Target: T1, mAChR M1 (UniProt P11229)
T1 sequence (P11229 1-460): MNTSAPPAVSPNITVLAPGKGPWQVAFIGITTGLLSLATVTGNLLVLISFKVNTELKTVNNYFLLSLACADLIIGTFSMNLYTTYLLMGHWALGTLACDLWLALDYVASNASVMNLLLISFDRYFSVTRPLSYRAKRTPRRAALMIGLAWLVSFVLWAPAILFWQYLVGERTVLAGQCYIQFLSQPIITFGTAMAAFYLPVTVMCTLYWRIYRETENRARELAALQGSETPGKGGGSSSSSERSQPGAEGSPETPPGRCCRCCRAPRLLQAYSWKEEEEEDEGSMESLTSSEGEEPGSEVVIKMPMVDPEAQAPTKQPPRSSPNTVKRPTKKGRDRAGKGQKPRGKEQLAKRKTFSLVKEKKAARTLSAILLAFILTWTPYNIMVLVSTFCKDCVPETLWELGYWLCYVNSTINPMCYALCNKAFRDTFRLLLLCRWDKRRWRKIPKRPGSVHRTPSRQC
Test: mAChR M1 cell-based functional assay (calcium mobilization, antagonist mode)
Details: for IC50: concentration of antagonist decreasing calcium flux by 50%, EC80 acetylcholine response, CHO-K1 cells expressing mAChR M1, read-out: Potency (IC50)
From the text: Chinese hamster ovary (CHO-K1) cells stably expressing rat (r)M1 were purchased from the American Type Culture Collection and cultured according to their indicated protocol. CHO cells stably expressing human (h)M2, hM3, and hM5 were described previously (Levey, et al., 1991); hM1 and hM4 cDNAs were purchased from Missouri S&T cDNA Resource; rM4 cDNA was provided by T. I. Bonner (National Institutes of Health, Bethesda, Md.). rM2 and rM3 were cloned from a rat brain cDNA library and sequence verified. hM1, rM2, rM3, hM4, and rM4 cDNAs were used to stably transfect CHO-K1 cells purchased from the American Type Culture Collection using Lipofectamine-2000. To make stable rM2, hM2, rM3, hM4, and rM4 cell lines for use in calcium mobilization assays, these cells also were stably transfected with a chimeric G-protein (Gqi5) (provided by B. R. Conklin, University of California, San Francisco) using Lipofectamine 2000. rM1, hM1, rM3, hM3, rM5, and hM5 cells were grown in Ham's F-12 medium containing 10% heat-inactivated fetal bovine serum (FBS), 20 mM HEPES, and 50 μg/mL G418 sulfate. rM2-Gqi5, hM2-Gqi5, and hM4-Gqi5 cells were grown in the same medium also containing 500 μg/mL Hygromycin B. Stable rM4-Gqi5 cells were grown in DMEM containing 10% heat-inactivated FBS, 20 mM HEPES, 400 μg/mL G418 sulfate, and […].
For high throughput measurement of antagonist inhibited increases in intracellular calcium, CHO-K1 cells stably expressing muscarinic receptors were plated in growth medium lacking G418 and hygromycin at 15,000 cells/20 μL/well in Greiner 384-well black-walled, tissue culture (TC)-treated, clear-bottom plates (VWR). Cells were incubated overnight at 37° C. and 5% CO2. The next day, cells were washed using an ELX 405 (BioTek) with four washes (80 μL) of assay buffer then aspirated to 20 μL. Next, 20 μL of 16 μM Fluo-4/acetoxymethyl ester (Invitrogen, Carlsbad, Calif.) prepared as a 2.3 mM stock in DMSO and mixed in a 1:1 ratio with 10% (w/v) Pluronic F-127 and diluted in assay buffer was added to the wells and the cell plates were incubated for 50 min at 37° C. and 5% CO2. Dye was removed by washing with the ELX 405 (four 80 μL washes of assay buffer) then aspirated to 20 μL. Compound master plates were formatted in an 11 point CRC format (1:3 dilutions) in 100% DMSO with a starting concentration of 10 mM using the BRAVO liquid handler (Agilent). Test compound CRCs were then transferred to daughter plates (240 nL) using the Echo acoustic plate reformatter (Labcyte, Sunnyvale, Calif.) and then diluted into assay buffer (40 μL) to a 2× stock using a Thermo Fisher Combi (Thermo Fisher Scientific, Waltham, Mass.).
Calcium flux was measured using the Functional Drug Screening System (FDSS) 6000 (Hamamatsu Corporation, Tokyo, Japan) as an increase in the fluorescent static ratio. Compounds were applied to cells (20 μL, 2×) using the automated system of the FDSS 6000 at 4 s into the 300 s protocol and the data were collected at 1 Hz. At 144 s into the 300 s protocol, 10 μL of an EC20 concentration of the muscarinic receptor agonist acetylcholine was added (5×), followed by the addition of 12 μL an EC80 concentration of acetylcholine at the 230 s time point (5×). Agonist activity was analyzed as a concentration-dependent increase in calcium mobilization upon compound addition. Positive allosteric modulator activity was analyzed as a concentration-dependent increase in the EC20 acetylcholine response. Antagonist activity was analyzed as a concentration-dependent decrease in the EC80 acetylcholine response. Concentration-response curves were generated using a four-parameter logistical equation in XLfit curve fitting software (IDBS, Bridgewater, N.J.) for Excel (Microsoft, Redmond, Wash.) or Prism (GraphPad Software, Inc., San Diego, Calif.).
The calcium mobilization assay was used to determine “potency”.

[1] = activity remaining at top dose of 30 μM test compound, as percentage of the response to an approx. EC80 concentration of ACh
[2] = dash = baseline or about zero remaining activity (table footnote)

Row | SMILES | Remaining Activity (%) [1] | IC50 [nM] | Remaining Activity (%) [2]
1 | O=C(C1CN(S(=O)(=O)c2ccc3[nH]c(=O)sc3c2)C1)N1CCN(c2ccncc2)CC1 [B70] | ≧80% | > 10000 | 
2 | O=C(C1CN(S(=O)(=O)c2cccnc2Cl)C1)N1CC2CN(c3ccncc3)CC2C1 (stereo not shown) [B54] |  | 930 | — (Unless otherwise indicated with a numerical value, the percent remaining activity is baseline or about zero, i.e. as indicated by “—”)
3 | O=C(C1CN(S(=O)(=O)c2cccc3ncccc23)C1)N1CCN(c2ccncc2)CC1 [B26] |  |  | — (Unless otherwise indicated with a numerical value, the percent remaining activity is baseline or about zero, i.e. as indicated by “—”)
4 | O=C(C1CN(S(=O)(=O)c2cccc(-n3cnnn3)c2)C1)N1CCN(c2ccncc2)CC1 [B72] | ≧80% | > 10000 | 
5 | O=C(C1CN(S(=O)(=O)c2cccc3nonc23)C1)N1CCN(c2ccncc2)CC1 [B8] |  | 290 | — (Unless otherwise indicated with a numerical value, the percent remaining activity is baseline or about zero, i.e. as indicated by “—”)
6 | O=C(C1CN(S(=O)(=O)c2cccc3cnccc23)C1)N1CCc2cccnc2C1 [B51] | 60% | > 10000 | 
7 | O=C(C1CN(S(=O)(=O)c2cccc3nonc23)C1)N1CCN(c2ccccn2)CC1 [B31] | 11% | > 10000 | 
8 | O=C(C1CN(S(=O)(=O)c2cccc3nonc23)C1)N1CC2CN(c3ccncc3)CC2C1 (stereo not shown) [B56] |  | 960 | — (Unless otherwise indicated with a numerical value, the percent remaining activity is baseline or about zero, i.e. as indicated by “—”)
9 | O=C(C1CN(S(=O)(=O)c2ccc(Cl)cn2)C1)N1CCN(c2ccncc2)CC1 [B42] | 34% | > 10000 | 
10 | O=C(C1CN(S(=O)(=O)c2cccc3cnccc23)C1)N1CCN(c2ccncn2)CC1 [B20] |  |  | — (Unless otherwise indicated with a numerical value, the percent remaining activity is baseline or about zero, i.e. as indicated by “—”)
11 | O=C(C1CN(S(=O)(=O)c2ccncc2)C1)N1CCN(c2ccncc2)CC1 [B67] | ≧80% | > 10000 | 
12 | Cc1cnccc1N1CCN(C(=O)C2CN(S(=O)(=O)c3cccc4cnccc34)C2)CC1 [B13] |  | 390 | — (Unless otherwise indicated with a numerical value, the percent remaining activity is baseline or about zero, i.e. as indicated by “—”)
13 | Cc1cc(N2CCN(C(=O)C3CN(S(=O)(=O)c4cccc5cnccc45)C3)CC2)cc(C)n1 [B14] |  | 460 | — (Unless otherwise indicated with a numerical value, the percent remaining activity is baseline or about zero, i.e. as indicated by “—”)
14 | O=C(C1CN(S(=O)(=O)c2cccc3nonc23)C1)N1CCC(O)(c2ccncc2)CC1 [B61] | ≧80% ** | > 10000 | 
15 | O=C(C1CN(S(=O)(=O)c2cccc3ncccc23)C1)N1CC2CN(c3ccncc3)CC2C1 (stereo not shown) [B52] |  | 3500 | — (Unless otherwise indicated with a numerical value, the percent remaining activity is baseline or about zero, i.e. as indicated by “—”)
16 | O=C(C1CN(S(=O)(=O)c2cccc3cnccc23)C1)N1CC2CN(c3ccccn3)CC2C1 (stereo not shown) [B4] |  | 87 | — (Unless otherwise indicated with a numerical value, the percent remaining activity is baseline or about zero, i.e. as indicated by “—”)
17 | O=C(C1CN(S(=O)(=O)C2CCOCC2)C1)N1CCN(c2ccncc2)CC1 [B81] | ≧80% | > 10000 | 
18 | CN1C(=O)Cc2cc(S(=O)(=O)N3CC(C(=O)N4CCN(c5ccncc5)CC4)C3)ccc21 [B49] | 48% | > 10000 | 
